From US20210267944A1 (BioXcel Therapeutics, Inc., priority 2018, published 2021)
Structures can show the parent of a compound that is named as a salt. Where two headings read alike, the source gives them in different places.

Details: for Respiration rate, Min / Systolic blood pressure, Max / Systolic blood pressure, Mean ± SD / Systolic blood pressure, Median / Systolic blood pressure, Min / Diastolic blood pressure Max / Diastolic blood pressure Mean ± SD / Diastolic blood pressure Median / Diastolic blood pressure Min / Pulse rate, Max / Pulse rate, Mean ± SD / Pulse rate, Median / Pulse rate, Min / Respiration rate, Max / Respiration rate, Mean ± SD / Respiration rate, Median: SDAT patients, IV infusion; for Subject stopping Criteria met (safety stoppage rule): subject 102
Experimental: Study drug IV infusion was to be stopped at any time if any of the following occurred: • There was more than 20 mm Hg decrease in systolic or diastolic blood pressure. • There was an isolated drop in Systolic BP<100 mm of Hg. • There was an isolated drop Diastolic BP<60 mm of Hg. • There was a decrease in heart rate of 20 beats per minute or a drop below 50 beats per minute. • Attainment of a RASS of −1 at the end of each 30 minutes infusion period.
Return to baseline parameters was defined as BP falling within 15 mm of Hg of baseline reading prior to drug administration or HR falling within 10 beats per minute of baseline reading prior to drug administration.

Structure (SMILES): Cc1cccc([C@H](C)c2cnc[nH]2)c1C [dexmedetomidine hydrochloride]
- Respiration rate, Min (01:15 Hr): 15 breaths/min
- Systolic blood pressure, Max (01:15 Hr): 152 mm of Hg
- Systolic blood pressure, Mean ± SD (01:15 Hr): 135.6 ± 13.94 mm of Hg
- Systolic blood pressure, Median (01:15 Hr): 141.0 mm of Hg
- Systolic blood pressure, Min (01:15 Hr): 110 mm of Hg
- Diastolic blood pressure Max (01:30 Hr): 84 mm of Hg
- Diastolic blood pressure Mean ± SD (01:30 Hr): 70.6 ± 8.14 mm of Hg
- Diastolic blood pressure Median (01:30 Hr): 70.0 mm of Hg
- Diastolic blood pressure Min (01:30 Hr): 62 mm of Hg
- Pulse rate, Max (01:30 Hr): 94 beats/min
- Pulse rate, Mean ± SD (01:30 Hr): 72.0 ± 14.66 beats/min
- Pulse rate, Median (01:30 Hr): 71.0 beats/min
- Pulse rate, Min (01:30 Hr): 52 beats/min
- Respiration rate, Max (01:30 Hr): 25 breaths/min
- Respiration rate, Mean ± SD (01:30 Hr): 18.6 ± 3.38 breaths/min
- Respiration rate, Median (01:30 Hr): 19.0 breaths/min
- Respiration rate, Min (01:30 Hr): 15 breaths/min
- Systolic blood pressure, Max (01:30 Hr): 156 mm of Hg
- Systolic blood pressure, Mean ± SD (01:30 Hr): 130.9 ± 13.44 mm of Hg
- Systolic blood pressure, Median (01:30 Hr): 129.5 mm of Hg
- Systolic blood pressure, Min (01:30 Hr): 112 mm of Hg
- Diastolic blood pressure Max (01:45 Hr): 86 mm of Hg
- Diastolic blood pressure Mean ± SD (01:45 Hr): 69.5 ± 11.82 mm of Hg
- Diastolic blood pressure Median (01:45 Hr): 66.0 mm of Hg
- Diastolic blood pressure Min (01:45 Hr): 60 mm of Hg
- Pulse rate, Max (01:45 Hr): 100 beats/min
- Pulse rate, Mean ± SD (01:45 Hr): 79.0 ± 14.23 beats/min
- Pulse rate, Median (01:45 Hr): 79.0 beats/min
- Pulse rate, Min (01:45 Hr): 61 beats/min
- Respiration rate, Max (01:45 Hr): 23 breaths/min
- Respiration rate, Mean ± SD (01:45 Hr): 18.6 ± 2.51 breaths/min
- Respiration rate, Median (01:45 Hr): 18.0 breaths/min
- Respiration rate, Min (01:45 Hr): 17 breaths/min
- Systolic blood pressure, Max (01:45 Hr): 158 mm of Hg
- Systolic blood pressure, Mean ± SD (01:45 Hr): 131.3 ± 23.43 mm of Hg
- Systolic blood pressure, Median (01:45 Hr): 131.0 mm of Hg
- Systolic blood pressure, Min (01:45 Hr): 105 mm of Hg
- Diastolic blood pressure Max (02:00 Hr): 86 mm of Hg
- Diastolic blood pressure Mean ± SD (02:00 Hr): 78.7 ± 11.02 mm of Hg
- Diastolic blood pressure Median (02:00 Hr): 84.0 mm of Hg
- Diastolic blood pressure Min (02:00 Hr): 66 mm of Hg
- Pulse rate, Max (02:00 Hr): 94 beats/min
- Pulse rate, Mean ± SD (02:00 Hr): 77.3 ± 20.82 beats/min
- Pulse rate, Median (02:00 Hr): 84.0 beats/min
- Pulse rate, Min (02:00 Hr): 54 beats/min
- Respiration rate, Max (02:00 Hr): 20 breaths/min
- Respiration rate, Mean ± SD (02:00 Hr): 18.3 ± 1.53 breaths/min
- Respiration rate, Median (02:00 Hr): 18.0 breaths/min
- Respiration rate, Min (02:00 Hr): 17 breaths/min
- Systolic blood pressure, Max (02:00 Hr): 156 mm of Hg
- Systolic blood pressure, Mean ± SD (02:00 Hr): 143.3 ± 17.01 mm of Hg
- Systolic blood pressure, Median (02:00 Hr): 150.0 mm of Hg
- Systolic blood pressure, Min (02:00 Hr): 124 mm of Hg
- Diastolic blood pressure Max (02:15 Hr): 85 mm of Hg
- Diastolic blood pressure Mean ± SD (02:15 Hr): 69.7 ± 13.28 mm of Hg
- Diastolic blood pressure Median (02:15 Hr): 62.0 mm of Hg
- Diastolic blood pressure Min (02:15 Hr): 62 mm of Hg
- Pulse rate, Max (02:15 Hr): 94 beats/min
- Pulse rate, Mean ± SD (02:15 Hr): 74.3 ± 21.13 beats/min
- Pulse rate, Median (02:15 Hr): 77.0 beats/min
- Pulse rate, Min (02:15 Hr): 52 beats/min
- Respiration rate, Max (02:15 Hr): 20 breaths/min
- Respiration rate, Mean ± SD (02:15 Hr): 19.3 ± 1.15 breaths/min
- Respiration rate, Median (02:15 Hr): 20.0 breaths/min
- Respiration rate, Min (02:15 Hr): 18 breaths/min
- Systolic blood pressure, Max (02:15 Hr): 159 mm of Hg
- Systolic blood pressure, Mean ± SD (02:15 Hr): 142.7 ± 20.98 mm of Hg
- Systolic blood pressure, Median (02:15 Hr): 150.0 mm of Hg
- Systolic blood pressure, Min (02:15 Hr): 119 mm of Hg
- Diastolic blood pressure Max (02:30 Hr): 83 mm of Hg
- Diastolic blood pressure Mean ± SD (02:30 Hr): 76.5 ± 9.19 mm of Hg
- Diastolic blood pressure Median (02:30 Hr): 76.5 mm of Hg
- Diastolic blood pressure Min (02:30 Hr): 70 mm of Hg
- Pulse rate, Max (02:30 Hr): 96 beats/min
- Pulse rate, Mean ± SD (02:30 Hr): 85.5 ± 14.85 beats/min
- Pulse rate, Median (02:30 Hr): 85.5 beats/min
- Pulse rate, Min (02:30 Hr): 75 beats/min
- Respiration rate, Max (02:30 Hr): 20, 20 breaths/min
- Respiration rate, Mean ± SD (02:30 Hr): 20.0 ± 0.00 breaths/min
- Respiration rate, Median (02:30 Hr): 20.0 breaths/min
- Respiration rate, Min (02:30 Hr): 20, 20 breaths/min
- Systolic blood pressure, Max (02:30 Hr): 154 mm of Hg
- Systolic blood pressure, Mean ± SD (02:30 Hr): 153.0 ± 1.41 mm of Hg
- Systolic blood pressure, Median (02:30 Hr): 153.0 mm of Hg
- Systolic blood pressure, Min (02:30 Hr): 152 mm of Hg
- Diastolic blood pressure mean values, in words (SDAT, during infusion): within clinically acceptable limits
- Pulse rate mean values, in words (SDAT, during infusion): within clinically acceptable limits
- Respiration rate values, in words (SDAT, during infusion): within clinically acceptable limits
- Systolic blood pressure mean values, in words (SDAT, during infusion): within clinically acceptable limits
- Subject stopping Criteria met (safety stoppage rule) (SDAT): only one subject's systolic BP reduced by more than 20 mm of Hg
- Subject stopping Criteria met (safety stoppage rule) (SDAT, listed as Test): SBP >20 mm of Hg decrease
- time for systolic BP to return to baseline levels after infusion was stopped (SDAT, the one subject with SBP decrease >20 mm of Hg): ≤ 10 min
